How the values were obtained:
Experiment in all cases: Liquid phase testing (bacterial growth, OD600)
[1] = system: resistant Staphylococcus aureus; format: cell-based; details: S. aureus, 30 μg/ml positive control
Experimental: (§1) Stock solutions of extracts were prepared in dimethylsulfoxide (DMSO) at 10 mg/ml and stored in 200 μl aliquots at −20° C. until used. Two pathological agents were assessed: resistant Staphylococcus aureus and resistant Staphylococcus pseudointermedius. Three concentrations of each extract (5, 10 and 25 μg/ml) were evaluated in triplicate for each trial. Vehicle alone served as negative control. […] For selected samples, studies were repeated at 100 and 50 μg/ml.
(§2) A standard micro or mini-prep chase study was conducted. Briefly, liquid media was inoculated with a starting bolus of 0.01% bacteria and spiked with test extract at the study concentrations. Samples were incubated (shaking, 37° C.) overnight for 16 hours and bacterial growth enumerated by UV spectrometry in quadruplicate.

[2] = system: resistant Staphylococcus pseudointermedius; format: cell-based, Staphylococcus pseudintermedius; details: S. pseudo, 30 μg/ml positive control
Experimental: as §1, §2

P. acnes = format: cell-based, Propionibacterium acnes; details: 30 μg/ml positive control
[3] = higher concentration study (Table 4)

`O=C(N[C@H](CO)[C@H](O)c1ccc([N+](=O)[O-])cc1)C(Cl)Cl` [CAP, Chloramphenicol] was tested, and the “OD600” value ([1]; Table 2) was 0.023, the OD600 [1, 3] was 0.002 and the “OD600” value ([2]; Table 2) was 0.021. For the same molecule, the OD600 [2, 3] was 0.004, the “OD600” value (P. acnes; Table 2) was 0.005 and the OD600 (P. acnes; [3]) was 0.000.

Reference: US11260091B2, “Red seaweed extracts, formulations and anti-microbial uses thereof” (OCEANS LTD., priority 2017, dated 2022)
